Data published in patent US4748161A, “Triterpenyl esters of organic acids and hypolipidemic agents composed of them” (Amano Pharmaceutical Co., Ltd., priority 1984, dated 1988).

Test system: serum lipids and serum lipid hydroperoxide
Assay: Pharmacological test method A for anti-hyperlipidemic activity (serum lipids, 2 weeks feeding)
Assay type: in vivo, male Wistar strain rats
Conditions: for AI [(TC - HDL-C)/(HDL-C)] / HDL-C in serum / LPO in serum / PL in serum / TC in serum / TG in serum: 1% in hyperlipidemic diet, 2 weeks; for AI % of diff. / AI Diff. / HDL-C % of diff. / HDL-C Diff. / LPO % of diff. / LPO Diff. / PL % of diff. / PL Diff. / TC % of diff. / TC Diff. / TG % of diff. / TG Diff.: versus control group
Method: Male Wistar strain rats (100±lg, each 10 rats were formed into a group) were used as test animals. Diet for the control group was prepared by thorough mixing of 20% casein, 62.5% glucose, 10% hydrogenated coconut oil, 2% agar powder, 4% vitamin-containing salt mixture, 1% cholesterol, and 0.5% cholic acid (this composition is described by Fukushima et al, in "Yakugaku Zassi", 89, No. 6, pp. 857-862 (1962)). Diet for the test groups was prepared by good mixing of 1% each of cycloartenol, 24-methylenecycloartanol, and cyclobranol with the control group's diet. Each rat was kept in a cage at a constant temperature of 23±1° C. and a constant R.H. of 55±5% for 2 weeks, during which 10 g/day of the prescribed was given. Finally the rats were fasted from food except water for 16 hours (from 4 p.m. of the 14th test day to 8 a.m. of the 15th test day), and under anesthesia with pentbarbital sodium (tradename: Nembutal), blood was taken from each rat through the descending abdominal arota. Then, TC, HDL-C, TG, PL, and LPO in the serum were measured in the manner that will be described below.
A TC kit-K (supplied by Nippon Shoji Kaisha, Ltd.) was used. The principle of this determination is as follows: The ester of cholesterol in the serum is hydrolyzed with cholesterol-ester hydrolase into free cholesterol and fatty acids. All the free cholesterol is oxidized with cholesterol oxydase to form Δ^4 -cholestenone and hydrogen peroxide. Phenol and 4-aminoantipyrin are oxidatively condensed together by the formed hydrogen peroxide and peroxydase. The produced red quinone coloring matter is measured by colorimetry for absorbance at 500 nm using a spectrophotometer, thereby determining the TC:
The color-developing liquid (3.0 ml) is well mixed with the sample serum (0.02 ml). The mixture once heated at 37° C. for 15 minutes, is measured for absorbance at 500 nm with a spectrophotometer. The found absorbance is denoted by EA. On the other hand, the color-developing liquid (3.0 ml) is well mixed with the standard solution. The mixture is treated and measured for absorbance at 500 nm in the same manner as the above. This found absorbance is denoted by ES. Both EA and ES are determined with reference to the value of the blank test conducted using the color-developing liquid (3.0 ml) alone. [formula]
An HDL-C kit-N (supplied by Nippon Shoji Kaisha, Ltd.) was used. […] (VLDL) and lo density lipoprotein (LDL) in the serum is precipitated by the action of heparin. The precipitate is separated by centrifugation. High density lipoprotein (HDL) is dissolved in the separated supernatant. Esters of cholesterol in this fraction is hydrolyzed with cholesterol-ester hydrolase into free cholesterol and fatty acids. All the free cholesterol is oxidized with cholesterol oxydase to form Δ^4 -cholestenone and hydrogen peroxide. Phenol and 4-aminoantipyrine are oxidatively condensed together by the formed hydrogen peroxide and peroxydase. The produced red quinone coloring matter is measured by colorimetry for absorbance at 500 nm using a spectrophotometer, thereby determining the HDL-C.
A PL kit-K (supplied by Nippon Shoji Kaisha, Ltd.) was used for the determination. Lecithin, sphingomyelin, and lysolecithin are decomposed by phospholipase D into choline and phosphatidic acid, N-acylsphingosyl phosphate, or lysophosphatidic acid, respectively. The resulting choline is quantitatively decomposed by choline oxydase into hydrogen peroxide and betaine. With this hydrogen peroxide, and aid of peroxydase, phenol and 4-aminoantipyrin are condensed into red quinone pigment, then the absorbance at 500 nm of which is measured with a spectrophotometer, thereby determining the PL.
Serum TG level was determined by means of a triglyceride test kit (supplied by Wako Pure Chemical Industries, Ltd.) in which acetylacetone is used for a reagent, in the following manner: Serum proteins are precipitated, when isopropyl alcohol and the sample serum are mixed. […]

Row | SMILES | AI [(TC - HDL-C)/(HDL-C)] | HDL-C in serum | LPO in serum | PL in serum | TC in serum | TG in serum | AI % of diff. | AI Diff. | HDL-C % of diff. | HDL-C Diff. | LPO % of diff. | LPO Diff. | PL % of diff. | PL Diff. | TC % of diff. | TC Diff. | TG % of diff. | TG Diff.
1 | CC(C)=CCCC(C)C1CCC2(C)C3CCC4C(C)(C)C(OC(=O)c5cccc(O)c5)CCC45CC35CCC12C (centres unmarked) [Example 12, cycloartenyl-m-hydroxybenzoate] | 1.571 | 58.5 mg/dL | 2.03 nmol/mL | 140.4 mg/dL | 150.4 mg/dL | 24.0 mg/dL | -14.9% | -0.276 | -0.3% | -0.2 mg/dL | -13.2% | -0.31 nmol/mL | -5.4% | -8.0 mg/dL | -10.0% | -16.7 mg/dL | -3.2% | -0.8 mg/dL
2 | CC(C)=CCCC(C)C1CCC2(C)C3CCC4C(C)(C)C(OC(=O)c5cccnc5)CCC45CC35CCC12C (centres unmarked) [Example 24, cycloartenyl nicotinate] | 0.748 | 94.0 mg/dL | 1.93 nmol/mL | 133.8 mg/dL | 164.3 mg/dL | 34.7 mg/dL | -38.8% | -0.474 | +8.7% | +7.5 mg/dl | -13.7% | -0.31 nmol/mL | -22.5% | -38.8 mg/dL | -14.5% | -27.9 mg/dL | 4.3% | -1.6 mg/dL
3 | CC(=O)Nc1ccc(C(=O)OC2CCC34CC35CCC3(C)C(C(C)CCC=C(C)C)CCC3(C)C5CCC4C2(C)C)cc1 (centres unmarked) [Example 20, cycloartenyl-p-acetamidobenzoate] | 0.867 | 90.4 mg/dL | 2.02 nmol/mL | 143.3 mg/dL | 168.8 mg/dL | 35.2 mg/dL | -29.1% | -0.355 | +4.5% | +3.9 mg/dl | -9.7% | -0.22 nmol/mL | -17.0% | -29.3 mg/dL | -12.2% | -23.4 mg/dL | -3.0% | -1.1 mg/dL
4 | CC(C)=C(C)CCC(C)C1CCC2(C)C3CCC4C(C)(C)C(OC(=O)c5cccnc5)CCC45CC35CCC12C (centres unmarked) [Example 50, cyclobranylnicotinate] | 0.697 | 95.7 mg/dL | 1.87 nmol/mL | 138.8 mg/dL | 162.4 mg/dL | 34.7 mg/dL | -43.0% | -0.525 | 10.6% | +9.2 mg/dl | -16.7% | -0.37 nmol/mL | -19.6% | -33.8 mg/dL | -15.5% | -29.8 mg/dL | -4.3% | -1.6 mg/dL
5 | CC(C)=CCCC(C)C1CCC2(C)C3CCC4C(C)(C)C(OC(=O)C=Cc5cccc(N)c5)CCC45CC35CCC12C (centres unmarked) [Example 108, cycloartenyl ester of m-aminocinnamic acid] | 3.627 | 46.6 mg/dL | 2.20 nmol/mL | 151.4 mg/dL | 215.6 mg/dL | 29.0 mg/dL | -53.7% | -4.213 | +26.3% | +9.7 mg/dl | -21.4% | -0.60 nmol/mL | -8.6% | -14.2 mg/dL | -33.9% | -110.6 mg/dL | -14.7% | -5.0 mg/dL
6 | COc1cc(C(=O)OC2CCC34CC35CCC3(C)C(C(C)CCC(C)=C(C)C)CCC3(C)C5CCC4C2(C)C)ccc1O (centres unmarked) [Example 37, cyclobranyl-4-hydroxy-3-methoxybenzoate] | 0.460 | 110.4 mg/dL | 1.91 nmol/mL | 155.4 mg/dL | 161.2 mg/dL | 31.0 mg/dL | -54.1% | -0.542 | +14.8% | +14.2 mg/dl | -18.0% | -0.42 nmol/mL | -14.1% | -25.5 mg/dL | -16.3% | -31.4 mg/dL | -6.6% | -2.2 mg/dL
7 | CCOc1cc(C=CC(=O)OC2CCC34CC35CCC3(C)C(C(C)CCC(C)=C(C)C)CCC3(C)C5CCC4C2(C)C)ccc1O (centres unmarked) [Example 71, cyclobranyl-3-ethoxy-4-hydroxycinnamate] | 0.523 | 106.0 mg/dL | 1.96 nmol/mL | 157.7 mg/dL | 161.4 mg/dL | 32.9 mg/dL | -47.8% | -0.479 | +10.2% | +9.8 mg/dl | -15.9% | -0.37 nmol/mL | -12.8% | -23.2 mg/dL | 16.2% | -31.2 mg/dL | -2.8% | -0.9 mg/dL
8 | CC(C)=C(C)CCC(C)C1CCC2(C)C3CCC4C(C)(C)C(OC(=O)/C=C/c5ccc(O)c(O)c5)CCC45CC35CCC12C (centres unmarked) [Example 32, cyclobranyl-3,4-dihydroxycinnamate] | 1.135 | 89.2 mg/dL | 2.06 nmol/mL | 168.2 mg/dL | 190.4 mg/dL | 40.7 mg/dL | -32.6% | – | +10.2% | +8.3 mg/dl | -10.7% | -0.25 nmol/mL | -6.4% | -11.5 mg/dL | -12.3% | -26.7 mg/dL | -4.8% | -2.1 mg/dL
9 | COc1cc(C=CC(=O)OC2CCC34CC35CCC3(C)C(C(C)CCC(C)=C(C)C)CCC3(C)C5CCC4C2(C)C)ccc1O (centres unmarked) [Example 100-2, cyclobranyl-4-hydroxy-3-methoxycinnamate] | 0.772 | 94.1 mg/dL | 1.59 nmol/mL | 143.0 mg/dL | 166.7 mg/dL | 21.6 mg/dL | -49.1% | -0.745 | +18.5% | +15.1 mg/dl | -29.8% | -0.68 nmol/mL | -17.6% | -30.6 mg/dL | -18.7% | -38.4 mg/dL | -37.0% | -12.7 mg/dL
